Reference: patent US20230390386A1, “REPLICATION-DEFECTIVE VACCINES AND USES THEREOF” (priority 2020, published 2023)

Key:
VZV-Luc = experiment: Cell-free VZV-Luc growth curve in ARPE-19 cells after CM treatment; type: cell-based, varicella zoster virus; details: for VZV-Luc growth and spread: two hours at RT, ARPE-19 cells
Method: Cell-free Varicella-zoster virus (VZV) treatment with the CM: VZV is a cell-associated virus. The efficacy of CM on VZV was checked using growth curve analysis. VZV-GFP-Luc was used to check the effect of CM on the virus. The ARPE-19 cells were seeded in 6-well plate and maintained at 37° C. and 5% CO2. The cell-free virus was treated with different concentration of CM (centanamycin (100 μM, 10 μM, and 0.1 μM) for two hours at RT and washed with three times with cDMEM prior to adding to the cells. The virus load in the infected cells was determined by adding luciferin substrate and measuring relative luciferase units every 24 hours of post-infection. The control included the cells infected with the virus without CM treatment. Viability of infected cells was quantified using the Cell Counting Kit-8 (Sigma# 96992) according to the manufacturers protocol.
Subsequent studies then evaluated the effect of CM treatment on the replication and growth of human alphaherpesvirus-3, also known as varicella zoster virus (VZV), under in vitro conditions in human epithelial ARPE-19 cells. The VZV is a highly cell associated virus and it is transmitted by cell-cell spread. The cell-free, luciferase-expressing VZV-Luc was treated with different concentration of CM (100 μM, 10 μM, 1.0 μM, and 0.1 μM) for two hours at RT. After two hours, the virus was added to the ARPE-19 cells. […] As compared to the CMV which can be attenuated with 1 μM CM, VZV is attenuated with 10 μM CM and this is because VZV is a cell associated virus and CM needs to cross the cell membrane to bind the virus and completely attenuates the VZV.

ToledoLuc strain of HCMV = experiment: ToledoLuc growth curve in MRC-5 cells after CM treatment of virus (bioluminescence); type: cell-based, human cytomegalovirus
Method: ToledoLuc treatment with CM: The human cytomegalovirus (HCMV) strain ToledoLuc, which contains a luciferase expression cassette, was used in this study and well-known to those of skill in the art. Cells of the MRC-5 human diploid fibroblast line were seeded into 12-well plates. […] After 2 hours of treatment with CM, ToledoLuc viruses were washed 3 times with cDMEM and added to MRC-5 cells at an MOI of 0.05 in triplicate wells. The control includes the ToledoLuc treated with the PET vehicle in a similar way. The growth kinetics of ToledoLuc was determined by bioluminescence assay. The luciferase activity of ToledoLuc virus was measured every 24 hours using IVIS-50.
In the present example, the effect of CM treatment on the HCMV was first examined using the modified ToledoLuc strain of HCMV. ToledoLuc was treated with different concentrations of CM for two hours at room temperature, washed to remove unbound CM and then allowed to grow in the MRCS cells.

HSV-2 GFP = HSV-2 GFP fluorescence imaging and growth curve (plaque assay) in ARPE-19 cells after CM treatment; type: cell-based, human simplex virus-2; details: for HSV-2-GFP infection and growth: ARPE-19 cells
Method: Human Simplex Virus (HSV) treatment with CM: The ARPE-19 (ATCC CRL-2302) cells were grown in 12 well plate in DMEM with 10% FBS and 1% P/S. […] were treated with different concentration of centanamycin (100 μM, 10 μM, 1μM, 0.1 μM, and 0.01 μM) for two hours at room temperature. The CM treated HSV were washed 3 times with cDMEM after treatment to remove CM and added to the ARPE-19 cells in triplicate at an MOI of 0.2. The HSV viruses were collected at 6, 12, 18, 24, 30, 36, and 42 hours of post-infection. The virus titer was determined by plaque assays using ARPE-19 cells.
In this study, the HSV-2 GFP was treated with the different concentrations of CM ranging from 100 μM to 0.01 μM (10-fold serial dilution at each concentration) and determined the growth curve using plaque assay (FIG. 2B). […] A 10 μM CM treatment of HSV-2-GFP leads to the virus attenuation and the virus was not able to spread to adjacent cells (FIG. 2A). […] The virus treatment with 1 μM CM lead to viral infection in host cells and extremely slowly spread to neighbor cells (FIG. 2A).

E. coli [1] = experiment: CM treatment of E. coli, colony count on LB agar plates; type: cell-based; details: three hours at room temperature
Method: CM treatment of E. coli: Overnight cultures of E. coli culture were diluted 200 times in LB media to make final volume of 1 ml and treated with different concentrations (100 μM, 10 μM, 1 μM, and 0.1 μM) of centanamycin for three hours at room temperature. The treated E. coli cells were then centrifuged at 10,000 rpm for 1 min, supernatant was removed and the pellet was resuspended in 100 μl of LB and plated on the LB agar plate without any antibiotic. The plates were then incubated at 37° C. for 16 hours. To determine the effect of centanamycin, the number of colonies were counted on each plate.
First, a culture of E. coli that had been established by an overnight incubation was diluted 200 times in LB media to make final volume to be 1 ml, followed by treatment with different concentrations of centanamycin (100 μM, 10 μM, 1 μM, and 0.1 μM) for three hours at room temperature. The treated cells were then centrifuged at 10,000 rpm for 1 min, supernatant was removed and the pellet was resuspended in 100 μl of LB and plated on LB agar plates without any antibiotic. The plates were then incubated at 37° C. for 16 hours. To determine the effect of centanamycin, the number of colonies on each plate were counted (FIGS. 6A-6B). […] Some of these bacteria were replication-defective and attenuated, making them suitable for use as vaccines.

E. coli [2] = experiment: E. coli growth assay (OD) after CM treatment; type: cell-based; details: two hours at RT
Method: […] Replicate samples were performed in triplicate. The treated bacterial cells were then added to 96 well, round-bottom plates, which were then incubated at 37° C. in a shaking incubator. The bacterial OD was measured in Glomax Explorer (Promega) every hour to determine the bacterial growth.
In order to observe the effect of CM on the rate of bacterial growth, a series of studies were conducting observing cultures of treated E. coli (FIG. 7). […] Each treatment condition was repeated in triplicate. The treated E. coli were then added to 96 well round-bottom plates, and cultured at 37° C. in a shaking incubator. The bacterial OD was measured by a Glomax Explorer (Promega) every hour to determine the rate bacterial growth. […] Each data point on the graph in FIG. 7 represents the average of three separate measurements.

## COc1cc2cc(C(=O)Nc3cc(N)c4ccccc4c3CCCl)[nH]c2c(OC)c1OC [CM, centanamycin]
VZV-Luc
  CM concentration that attenuates VZV: 10 µM
VZV-Luc; cell-free virus treated with 0.1 μM CM
  VZV-Luc growth and spread: infect as well as spread to the adjacent cells but with reduced growth
VZV-Luc; cell-free virus treated with 1.0 μM CM
  VZV-Luc growth and spread: infect as well as spread to the adjacent cells but with reduced growth
VZV-Luc; cell-free virus treated with 10.0 μM CM
  VZV-Luc growth and spread: allowed the virus to infect the cells but not to spread to the adjacent cells
VZV-Luc; cell-free virus treated with 100 μM CM
  VZV-Luc growth and spread: completely inhibit the growth as well as replication
ToledoLuc strain of HCMV; virus treated with 0.01 μM-0.001 μM CM
  ToledoLuc infection and replication (luciferase activity): allows the virus to grow and replicate in the infected cells
ToledoLuc strain of HCMV; virus treated with 0.1 μM CM, 2 hours at RT
  ToledoLuc infection and replication (luciferase activity): allow the virus to infect the cells but did not replicate
ToledoLuc strain of HCMV; virus treated with 1 μM CM, 2 hours at RT, MRC5 cells, 9 days post-infection
  ToledoLuc infection and replication (luciferase activity): did not grow and was replication-defective
ToledoLuc strain of HCMV; virus treated with 10 μM CM, 2 hours at RT, MRC5 cells
  ToledoLuc infection and replication (luciferase activity): neither replicate nor infects the cells
ToledoLuc strain of HCMV; virus treated with 100 μM CM, 2 hours at RT, MRC5 cells
  ToledoLuc infection and replication (luciferase activity): neither replicate nor infects the cells
HSV-2 GFP
  CM concentration needed to produce replication-defective HSV-2: 1 µM
HSV-2 GFP; virus treated with 1.0 μM CM
  HSV-2-GFP infection and growth: slower growth as compared to untreated
HSV-2 GFP; virus treated with 10 μM CM
  HSV-2-GFP infection and growth: able to infect the cells but not replicate
HSV-2 GFP; virus treated with 100 μM CM
  HSV-2-GFP infection and growth: completely inhibits the virus infection
E. coli [1]; 0.1 μM
  E. coli colonies on LB agar plate after 16 hours: reduce the number of bacterial colonies on the agar plate in a dose dependent manner
E. coli [1]; 1 μM
  E. coli colonies on LB agar plate after 16 hours: reduce the number of bacterial colonies on the agar plate in a dose dependent manner
E. coli [1]; 10 μM
  E. coli colonies on LB agar plate after 16 hours: reduce the number of bacterial colonies on the agar plate in a dose dependent manner
E. coli [1]; 100 μM
  E. coli colonies on LB agar plate after 16 hours: did not grow on the LB agar plate
E. coli [2]; 0.01 μM CM
  E. coli growth in culture (OD): able to grow slowly in the culture
E. coli [2]; 0.1 μM CM
  E. coli growth in culture (OD): able to grow slowly in the culture
E. coli [2]; 10 μM CM
  E. coli growth in culture (OD): did not grow
E. coli [2]; 100 μM CM
  E. coli growth in culture (OD): did not grow in the culture
